From PubChem BioAssay (NCI)
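Tested at 5 concentrations; 48 h exposure; 96-well plates; endpoints linearly interpolated, else capped at highest concentration. TGI denotes the concentration required for complete inhibition of growth.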

Tests used:
Assay in all cases: inhibition of tumour cell growth, NCI panel, 48 h
CCRF-CEM leukemia = test system: CCRF-CEM leukemia
DU-145 prostate = test system: DU-145 prostate
RXF 393 renal = test system: RXF 393 renal
CAKI-1 renal = test system: CAKI-1 renal
HL-60(TB) leukemia = test system: HL-60(TB) leukemia
ACHN renal = test system: ACHN renal
OVCAR-3 ovarian = test system: OVCAR-3 ovarian
PC-3 prostate = test system: PC-3 prostate
SR leukemia = test system: SR leukemia
T-47D breast = test system: T-47D breast
HT29 colon = test system: HT29 colon
MDA-MB-435 = test system: MDA-MB-435
K-562 leukemia = test system: K-562 leukemia
UO-31 renal = test system: UO-31 renal
OVCAR-8 ovarian = test system: OVCAR-8 ovarian
OVCAR-5 ovarian = test system: OVCAR-5 ovarian
MDA-N = test system: MDA-N
NCI/ADR-RES ovarian = test system: NCI/ADR-RES ovarian
HCT-15 colon = test system: HCT-15 colon
HS 578T breast = test system: HS 578T breast
SK-MEL-2 melanoma = test system: SK-MEL-2 melanoma
HOP-62 NSCLC = test system: HOP-62 NSCLC
MOLT-4 leukemia = test system: MOLT-4 leukemia
SN12C renal = test system: SN12C renal
OVCAR-4 ovarian = test system: OVCAR-4 ovarian
SF-268 CNS = test system: SF-268 CNS
KM12 colon = test system: KM12 colon
IGROV1 ovarian = test system: IGROV1 ovarian
HCC-2998 colon = test system: HCC-2998 colon
M14 melanoma = test system: M14 melanoma
UACC-62 melanoma = test system: UACC-62 melanoma
COLO 205 colon = test system: COLO 205 colon
NCI-H460 lung = test system: NCI-H460 lung
SW-620 colon = test system: SW-620 colon
NCI-H23 lung = test system: NCI-H23 lung
NCI-H522 lung = test system: NCI-H522 lung
MALME-3M melanoma = test system: MALME-3M melanoma
SK-MEL-28 melanoma = test system: SK-MEL-28 melanoma
BT-549 breast = test system: BT-549 breast
SK-MEL-5 melanoma = test system: SK-MEL-5 melanoma
RPMI-8226 leukemia = test system: RPMI-8226 leukemia
UACC-257 melanoma = test system: UACC-257 melanoma
MDA-MB-231 breast = test system: MDA-MB-231 breast
U251 CNS = test system: U251 CNS
EKVX NSCLC = test system: EKVX NSCLC
A498 renal = test system: A498 renal
LOX IMVI melanoma = test system: LOX IMVI melanoma
TK-10 renal = test system: TK-10 renal
SF-539 CNS = test system: SF-539 CNS
HCT-116 colon = test system: HCT-116 colon
SK-OV-3 ovarian = test system: SK-OV-3 ovarian
SNB-19 CNS = test system: SNB-19 CNS
MCF7 breast = test system: MCF7 breast
SF-295 CNS = test system: SF-295 CNS
786-0 renal = test system: 786-0 renal
A549 NSCLC = test system: A549 NSCLC
NCI-H226 lung = test system: NCI-H226 lung
SNB-75 CNS = test system: SNB-75 CNS
HOP-92 NSCLC = test system: HOP-92 NSCLC

In the case of COC(=O)c1c(C)n([O-])c2cc(Cl)c(Cl)cc2[n+]1=O, the TGI (CCRF-CEM leukemia) is reported as 42.3 µM, the TGI (DU-145 prostate) is reported as 38.4 µM and the TGI (RXF 393 renal) is reported as > 100 µM. For the same molecule, the TGI (CAKI-1 renal) was 61 µM, the TGI (HL-60(TB) leukemia) was 50.2 µM and the TGI (ACHN renal) was 62.8 µM. The TGI (OVCAR-3 ovarian) was 52.4 µM, the TGI (PC-3 prostate) was > 100 µM and the TGI (SR leukemia) was > 100 µM. For the same molecule, the TGI (T-47D breast) was > 100 µM, the TGI (HT29 colon) was 51.6 µM and the TGI (MDA-MB-435) was 62.8 µM. For the same molecule, the TGI (K-562 leukemia) was > 100 µM, the TGI (UO-31 renal) was 46.7 µM and the TGI (OVCAR-8 ovarian) was 59.3 µM. The TGI (OVCAR-5 ovarian) was > 100 µM, the TGI (MDA-N) was > 100 µM and the TGI (NCI/ADR-RES ovarian) was 49.5 µM. For the same molecule, the TGI (HCT-15 colon) was 37.9 µM, the TGI (HS 578T breast) was 65.6 µM and the TGI (SK-MEL-2 melanoma) was 82.1 µM. The TGI (HOP-62 NSCLC) was > 100 µM, the TGI (MOLT-4 leukemia) was 84.5 µM and the TGI (SN12C renal) was 84 µM. The TGI (OVCAR-4 ovarian) was 52.5 µM, the TGI (SF-268 CNS) was > 100 µM and the TGI (KM12 colon) was 33.1 µM. For the same molecule, the TGI (IGROV1 ovarian) was 19.9 µM, the TGI (HCC-2998 colon) was 32.1 µM and the TGI (M14 melanoma) was 76.6 µM. For the same molecule, the TGI (UACC-62 melanoma) was 40.3 µM, the TGI (COLO 205 colon) was 25.8 µM and the TGI (NCI-H460 lung) was 29.2 µM. The TGI (SW-620 colon) was > 100 µM, the TGI (NCI-H23 lung) was > 100 µM and the TGI (NCI-H522 lung) was 25.4 µM. For the same molecule, the TGI (MALME-3M melanoma) was 31.1 µM, the TGI (SK-MEL-28 melanoma) was 92.1 µM and the TGI (BT-549 breast) was > 100 µM. It also gave a TGI (SK-MEL-5 melanoma) of 23.4 µM, a TGI (RPMI-8226 leukemia) of 19.3 µM and a TGI (UACC-257 melanoma) of 54.9 µM. The TGI (MDA-MB-231 breast) was 67.2 µM, the TGI (U251 CNS) was > 100 µM and the TGI (EKVX NSCLC) was 67.7 µM. The TGI (A498 renal) was 40.2 µM, the TGI (LOX IMVI melanoma) was 27.8 µM and the TGI (TK-10 renal) was 61.5 µM. The TGI (SF-539 CNS) was 54.4 µM, the TGI (HCT-116 colon) was > 100 µM and the TGI (SK-OV-3 ovarian) was 40 µM. For the same molecule, the TGI (SNB-19 CNS) was > 100 µM, the TGI (MCF7 breast) was > 100 µM and the TGI (SF-295 CNS) was > 100 µM. For the same molecule, the TGI (786-0 renal) was > 100 µM and the TGI (A549 NSCLC) was 28.6 µM.
With CCOC(=O)C1(C(=O)OCC)[C@@H](c2ccccc2)C2=NO[C@@H]3CCC[C@H]1[C@H]23 the TGI (CCRF-CEM leukemia) was 78.7 µM, the TGI (DU-145 prostate) was > 100 µM and the TGI (RXF 393 renal) was > 100 µM. For the same molecule, the TGI (CAKI-1 renal) was > 100 µM, the TGI (HL-60(TB) leukemia) was > 100 µM and the TGI (ACHN renal) was > 100 µM. For the same molecule, the TGI (OVCAR-3 ovarian) was > 100 µM, the TGI (PC-3 prostate) was > 100 µM and the TGI (SR leukemia) was > 100 µM. The TGI (T-47D breast) was > 100 µM, the TGI (HT29 colon) was > 100 µM and the TGI (MDA-MB-435) was 53.6 µM. The TGI (K-562 leukemia) was > 100 µM, the TGI (UO-31 renal) was > 100 µM and the TGI (OVCAR-8 ovarian) was > 100 µM. The TGI (OVCAR-5 ovarian) was > 100 µM, the TGI (MDA-N) was 64.6 µM and the TGI (NCI/ADR-RES ovarian) was > 100 µM. For the same molecule, the TGI (HCT-15 colon) was > 100 µM, the TGI (HS 578T breast) was > 100 µM and the TGI (SK-MEL-2 melanoma) was > 100 µM. For the same molecule, the TGI (NCI-H226 lung) was > 100 µM, the TGI (HOP-62 NSCLC) was > 100 µM and the TGI (MOLT-4 leukemia) was > 100 µM. For the same molecule, the TGI (SNB-75 CNS) was > 100 µM, the TGI (SN12C renal) was > 100 µM and the TGI (OVCAR-4 ovarian) was > 100 µM. The TGI (SF-268 CNS) was > 100 µM, the TGI (KM12 colon) was > 100 µM and the TGI (IGROV1 ovarian) was > 100 µM. For the same molecule, the TGI (HCC-2998 colon) was 50.2 µM, the TGI (M14 melanoma) was > 100 µM and the TGI (UACC-62 melanoma) was > 100 µM. The TGI (COLO 205 colon) was > 100 µM, the TGI (NCI-H460 lung) was > 100 µM and the TGI (SW-620 colon) was > 100 µM. For the same molecule, the TGI (NCI-H23 lung) was > 100 µM, the TGI (NCI-H522 lung) was > 100 µM and the TGI (MALME-3M melanoma) was > 100 µM. The TGI (SK-MEL-28 melanoma) was > 100 µM, the TGI (BT-549 breast) was > 100 µM and the TGI (SK-MEL-5 melanoma) was > 100 µM. For the same molecule, the TGI (HOP-92 NSCLC) was > 100 µM, the TGI (RPMI-8226 leukemia) was > 100 µM and the TGI (UACC-257 melanoma) was 79.8 µM. For the same molecule, the TGI (MDA-MB-231 breast) was > 100 µM, the TGI (U251 CNS) was > 100 µM and the TGI (EKVX NSCLC) was > 100 µM. For the same molecule, the TGI (LOX IMVI melanoma) was > 100 µM, the TGI (TK-10 renal) was > 100 µM and the TGI (SF-539 CNS) was > 100 µM. For the same molecule, the TGI (HCT-116 colon) was > 100 µM, the TGI (SK-OV-3 ovarian) was > 100 µM and the TGI (SNB-19 CNS) was > 100 µM. The TGI (MCF7 breast) was > 100 µM, the TGI (SF-295 CNS) was > 100 µM and the TGI (786-0 renal) was > 100 µM. For the same molecule, the TGI (A549 NSCLC) was > 100 µM.
